The molecules below were run against CDK2/Cyclin A (Homo sapiens, UniProt P24941) (assay: CDK2/Cyclin A assay ([32P]ATP, Rb fragment)). Settings: Table 2.
Assay type: biochemical

| Compound | Ki |
| --- | --- |
| COc1cc(O)ccc1-c1ccc2c(-c3nc4cnccc4[nH]3)n[nH]c2c1 [Example 25(a), 3-(3H-Iniidazo[4,5-c]pyridin-2-yl)-6-(4-hydroxy-2-methoxyphenyl)-1H-indazole] | 80 nM |
| Oc1cccc(-c2ccc3c(-c4nc5ccccc5[nH]4)n[nH]c3c2)c1 [Example 24(o), 3-1H-Benzoimidazol-2-yl-6-(3-hydroxyphenyl)-1H-indazole] | 29 nM |
| CCc1cc(O)ccc1-c1ccc2c(-c3nc4ccccc4[nH]3)n[nH]c2c1 [Example 24(e), 3-1H-Benzoimidazol-2-yl-6-(2-ethyl-4-hydroxyphenyl)-1H-indazole] | 30 nM |

What follows are molecules tested against T1, human CHK1 (FL-CHK1) (Homo sapiens, UniProt O14757) (assay: CHK1 assay (coupled spectrophotometric, Syntide-2)). Settings: Table 1; read-out: CHK-1 Ki.
T1 construct: C-terminally His-tagged full-length human CHK1 (FL-CHK1); made in house; host or cells: baculovirus/insect cell system
T1 sequence (O14757 1-476): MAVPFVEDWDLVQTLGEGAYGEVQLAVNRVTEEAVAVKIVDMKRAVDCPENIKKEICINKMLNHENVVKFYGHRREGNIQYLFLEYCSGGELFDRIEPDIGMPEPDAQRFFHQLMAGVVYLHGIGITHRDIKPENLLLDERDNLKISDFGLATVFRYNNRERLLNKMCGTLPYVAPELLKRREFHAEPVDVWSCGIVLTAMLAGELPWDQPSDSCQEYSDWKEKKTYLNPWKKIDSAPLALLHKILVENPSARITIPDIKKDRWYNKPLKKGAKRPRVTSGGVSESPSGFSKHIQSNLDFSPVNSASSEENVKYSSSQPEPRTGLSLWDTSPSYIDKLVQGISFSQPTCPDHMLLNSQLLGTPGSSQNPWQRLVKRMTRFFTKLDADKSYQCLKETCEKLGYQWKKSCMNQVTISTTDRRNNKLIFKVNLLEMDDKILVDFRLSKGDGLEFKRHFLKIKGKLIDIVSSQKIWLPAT
Assay type: biochemical
From the text: CHK1 Construct for Assay: C-terminally His-tagged full-length human CHK1 (FL-CHK1) was expressed using the baculovirus/insect cell system. […] The protein was purified by conventional chromatographic techniques.
The production of ADP from ATP that accompanies phosphoryl transfer to the synthetic substrate peptide Syntide-2 ([…]) was coupled to oxidation of NADH using phosphoenolpyruvate (PEP) through the actions of pyruvate kinase (PK) and lactic dehydrogenase (LDH). The oxidation of NADH was monitored by following the decrease of absorbance at 340 nm (ε340=6.22 cm^−1 mM^−1) using a HP8452 spectrophotometer. […] Assays were initiated with 10 nM of FL-CHK1. Ki values were determined by measuring initial enzyme activity in the presence of varying concentrations of test compounds. The data were analyzed using Enzyme Kinetic and Kaleidagraph software.

| Compound | Ki |
| --- | --- |
| Nc1cccc(Oc2ccc3c(/C=C/c4ccccc4)n[nH]c3c2)c1 [Example 7, 3-(Styryl-1H-indazol-6-yloxy)-phenylamine] | 1300 nM |
| O=C(c1ccccc1)c1ccc2c(/C=C/c3ccccc3)n[nH]c2c1 [Example 17, Phenyl-(3-styryl-1H-indazol-6-yl)-methanone] | 532 nM |
| Brc1cccc(Oc2ccc3c(/C=C/c4ccccc4)n[nH]c3c2)c1 [Example 8(d), 6-(3-Bromo-phenoxy)-3-styryl-1H-indazole] | 82000 nM |
| C=C(c1ccccc1)c1ccc2c(/C=C/c3ccccc3)n[nH]c2c1 [Example 10, 6-(1-Phenyl-vinyl)-3-styryl-1H-indazole] | 9100 nM |

Same assay, conditions: Table 3; read-out: CHK-1 Ki

| Compound | Ki |
| --- | --- |
| O=C(Nc1ccc(O)cc1)c1ccc2c(-c3nc4cc(Cl)ccc4[nH]3)n[nH]c2c1 [Example 54(l), 3-(5-Chloro-1H-benzoimidazol-2-yl)-N-(4-hydroxyphenyl)-1H-indazole-6-carboxamide] | 990 nM |
| C(=C\c1n[nH]c2cc(-c3ccncc3)ccc12)/c1cccc(-c2ccccc2)c1 [Example 29(n), 6-Pyrid-4-yl-3-E-[2-(biphenyl-3-yl)ethenyl]-1H-indazole] | 16000 nM |
| C(=C\c1n[nH]c2cc(-c3ccncc3)ccc12)/c1ccc2ccccc2c1 [Example 29(k), 6-Pyrid-4-yl-3-E-[2-(naphthalen-2-yl)ethenyl]-1H-indazole] | 1300 nM |
| c1ccc2[nH]c(-c3n[nH]c4cc(-c5ccncc5)ccc34)nc2c1 [Example 55, 3-1H-Benzoimidazol-2-yl-6-pyridin-4-yl-1H-indazole] | 10000 nM |
| C(=C\c1n[nH]c2cc(-c3ccncc3)ccc12)/c1ccc(-c2ccccc2)cc1 [Example 29(d), 6-Pyrid-4-yl-3-E-[2-(biphenyl-4-yl)ethenyl]-1H-indazole] | 10000 nM |
| C(=C\c1n[nH]c2cc(-c3ccncc3)ccc12)/c1nc2ccccc2[nH]1 [Example 29(q), 6-Pyrid-4-yl-3-E-[2-(4-benzimidazol-2-yl)ethenyl]-1H-indazole] | 11000 nM |
| Cc1ccc2[nH]c(-c3n[nH]c4cc(C(=O)Nc5ccc(O)cc5)ccc34)nc2c1C [Example 54(f), 3-(4,5-Dimethyl-1H-benzoimidazol-2-yl)-N-(4-hydroxyphenyl)-1H-indazole-6-carboxamide] | 2900 nM |
| Oc1ccc(-c2ccc3c(/C=C/c4ccccc4)n[nH]c3c2)cc1O [Example 28(d), 6-(3,4-Dihydroxyphenyl)-3-E-styryl-1H-indazole] | 18 nM |
| O=C(NOCc1ccccc1)c1ccc2c(-c3nc4ccccc4[nH]3)n[nH]c2c1 [Example 53(f), 3-(1H-Benzoimidazol-2-yl)-N-benzyloxy-1H-indazole-6-carboxamide] | 7300 nM |
| O=C(NC1CC1)c1ccc2c(-c3nc4ccccc4[nH]3)n[nH]c2c1 [Example 53(b), 3-(1H-Benzoimidazol-2-yl)-N-cyclopropyl-1H-indazole-6-carboxamide] | 1400 nM |
| C(=C\c1n[nH]c2cc(-c3cccc4[nH]ccc34)ccc12)/c1ccccc1 [Example 27(g), 6-Indol-4-yl-3-E-styryl-1H-indazole] | 850 nM |
| C(=C\c1n[nH]c2cc(-c3ccncc3)ccc12)/c1ccc[nH]1 [Example 29(t), 6-Pyrid-4-yl-3-E-[2-(1H-pyrrol-2-yl)ethenyl]-1H-indazole] | 72 nM |
| Fc1cc(F)cc(/C=C/c2n[nH]c3cc(-c4ccncc4)ccc23)c1 [Example 29(m), 6-Pyrid-4-yl-3-E-[2-(3,5-difluorophenyl)ethenyl]-1H-indazole] | 1000 nM |
| O=C(Nc1ccc(O)cc1)c1ccc2c(-c3nc4cc5ccccc5cc4[nH]3)n[nH]c2c1 [Example 54(d), 3-[1H-Naphtho(2,3-d)imidazol-2-yl]-N-(4-hydroxyphenyl)-1H-indazole-6-carboxamide] | 680 nM |
| O=C(Nc1ccc(O)c(F)c1)c1ccc2c(-c3nc4ccccc4[nH]3)n[nH]c2c1 [Example 53(g), 3-(1H-Benzoimidazol-2-yl)-N-(3-fluoro-4-hydroxyphenyl)-1H-indazole-6-carboxamide] | 1500 nM |
| O=C(Nc1ccc(O)cc1)c1ccc2c(-c3nc4cc(Cl)c(Cl)cc4[nH]3)n[nH]c2c1 [Example 54(b), 3-(5,6-Dichloro-1H-benzoimidazol-2-yl)-N-(4-hydroxyphenyl)-1H-indazole-6-carboxamide] | 3100 nM |
| Fc1cccc(F)c1/C=C/c1n[nH]c2cc(-c3ccncc3)ccc12 [Example 29(o), 6-Pyrid-4-yl-3-E-[2-(2,6-difluorophenyl)ethenyl]-1H-indazole] | 46000 nM |
| O=C(Nc1ccc(O)cc1)c1ccc2c(-c3nc4cc(C(F)(F)F)ccc4[nH]3)n[nH]c2c1 [Example 54(h), 3-(5-Trifluoromethyl-1H-benzoimidazol-2-yl)-N-(4-hydroxyphenyl)-1H-indazole-6-carboxamide] | 1000 nM |
| Cc1nc(/C=C/c2n[nH]c3cc(-c4ccncc4)ccc23)cs1 [29(j), 6-Pyrid-4-yl-3-E-[2-(2-methylthiazol-4-yl)ethenyl]-1H-indazole] | 533 nM |
| COc1ccc(-c2ccc3c(/C=C/c4ccccc4)n[nH]c3c2)cn1 [Example 27(k), 6-(2-Methoxypyridin-5-yl)-3-E-styryl-1H-indazole] | 24000 nM |
| Oc1ccc(-c2ccc3c(/C=C/c4ccccc4)n[nH]c3c2)cc1 [Example 28(b)] | 14.3 nM |

Same assay, conditions: Table 4; compound at 20 μM

| Compound | CHK-1 @ 20 μM |
| --- | --- |
| C=CCC(NC(=O)c1ccc2c(-c3nc4ccccc4[nH]3)n[nH]c2c1)c1ccccn1 (stereo not drawn) [drawing 1259] | 24.1 |
| COC(=O)c1cc(NC(=O)c2ccc3c(-c4nc5ccccc5[nH]4)n[nH]c3c2)ccc1O [drawing 1260] | 31.6 |
| O=C(Nc1cnccn1)c1ccc2c(-c3nc4ccccc4[nH]3)n[nH]c2c1 [drawing 1245] | 36.3 |
| COc1ccc(NC(=O)c2ccc3c(-c4nc5ccccc5[nH]4)n[nH]c3c2)cc1O [drawing 1257] | 32.3 |
| O=C(Nc1ncnc2[nH]cnc12)c1ccc2c(-c3nc4ccccc4[nH]3)n[nH]c2c1 [drawing 1250] | 38.6 |
| O=C(NC1CCS(=O)(=O)C1)c1ccc2c(-c3nc4ccccc4[nH]3)n[nH]c2c1 (stereo not drawn) [drawing 1226] | 24.2 |
| COC(=O)c1ccc(NC(=O)c2ccc3c(-c4nc5ccccc5[nH]4)n[nH]c3c2)o1 [drawing 1258] | 42.9 |
| O=C(Nc1ccc2[nH]c(=O)[nH]c2c1)c1ccc2c(-c3nc4ccccc4[nH]3)n[nH]c2c1 [drawing 1232] | 32.3 |
| O=C(Nc1cc[nH]n1)c1ccc2c(-c3nc4ccccc4[nH]3)n[nH]c2c1 | 52.4 |
| O=C(Nc1cc(O)[nH]n1)c1ccc2c(-c3nc4ccccc4[nH]3)n[nH]c2c1 | 38.6 |

These molecules were tested against CDK4/Cyclin D3 complex (Homo sapiens, UniProt P11802) (assay: CDK4/Cyclin D assay ([32P]ATP, Rb fragment)). Settings: not given.
Chain of CDK4/Cyclin D3 complex (P11802 whole entry, the tested form may be a part): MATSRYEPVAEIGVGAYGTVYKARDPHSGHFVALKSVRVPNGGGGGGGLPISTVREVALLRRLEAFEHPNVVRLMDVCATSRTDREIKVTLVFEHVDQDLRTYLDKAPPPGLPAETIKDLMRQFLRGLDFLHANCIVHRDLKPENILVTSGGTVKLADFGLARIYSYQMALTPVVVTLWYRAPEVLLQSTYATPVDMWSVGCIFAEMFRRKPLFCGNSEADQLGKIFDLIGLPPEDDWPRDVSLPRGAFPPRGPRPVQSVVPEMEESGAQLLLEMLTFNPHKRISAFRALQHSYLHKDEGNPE
Chain of CDK4/Cyclin D3 complex (P30281 whole entry partner, the tested form may be a part): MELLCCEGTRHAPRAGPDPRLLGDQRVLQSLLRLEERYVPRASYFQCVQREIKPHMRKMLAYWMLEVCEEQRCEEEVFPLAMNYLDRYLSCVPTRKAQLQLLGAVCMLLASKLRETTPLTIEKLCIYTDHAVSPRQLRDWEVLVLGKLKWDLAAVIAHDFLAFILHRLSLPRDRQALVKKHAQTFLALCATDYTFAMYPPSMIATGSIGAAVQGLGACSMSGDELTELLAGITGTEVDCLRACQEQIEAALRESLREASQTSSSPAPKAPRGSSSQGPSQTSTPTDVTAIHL

| Compound | Ki |
| --- | --- |
| Cc1cc(O)ccc1-c1ccc2c(-c3nc4ccccc4[nH]3)n[nH]c2c1 [Example 24(b), 4-[3-(1-H-Benzoimidazol-2-yl)-1-H-indazol-6-yl]-3-methyl-phenol] | 3.2 nM |
| COc1cc(O)ccc1-c1ccc2c(-c3nc4cnccc4[nH]3)n[nH]c2c1 [Example 25(a), 3-(3H-Iniidazo[4,5-c]pyridin-2-yl)-6-(4-hydroxy-2-methoxyphenyl)-1H-indazole] | 21 nM |
| Oc1cccc(-c2ccc3c(-c4nc5ccccc5[nH]4)n[nH]c3c2)c1 [Example 24(o), 3-1H-Benzoimidazol-2-yl-6-(3-hydroxyphenyl)-1H-indazole] | 200 nM |
| CCc1cc(O)ccc1-c1ccc2c(-c3nc4ccccc4[nH]3)n[nH]c2c1 [Example 24(e), 3-1H-Benzoimidazol-2-yl-6-(2-ethyl-4-hydroxyphenyl)-1H-indazole] | 4.4 nM |
| COc1cc(O)ccc1-c1ccc2c(-c3nc4ccc(C(=O)NCCN5CCOCC5)cc4[nH]3)n[nH]c2c1 [Example 25(b), 3-[6-(2-Morpholin-4-yl-ethylcarbamoyl)-1H-benzoimidazol-2-yl]-6-(2-methoxy-4-hydroxyphenyl)-1H-indazole] | 48 nM |
| COc1cc(O)ccc1-c1ccc2c(-c3ncc[nH]3)n[nH]c2c1 [Example 25(e), 3-Imdazol-2-yl-6-(2-methoxy-4-hydroxyphenyl)-1H-indazole] | 181 nM |
| COc1cc(O)ccc1-c1ccc2c(-c3nc4ccc(N5CCN(C)CC5)cc4[nH]3)n[nH]c2c1 [Example 25(c), 3-[6-(4-Methylpiperazin-1-yl)-1H-benzoimidazol-2-yl]-6-(2-methoxy-4-hydroxyphenyl)-1H-indazole] | 15.5 nM |

These molecules were tested against unphosphorylated VEGF-R2Δ50 (FLVK) (Homo sapiens, UniProt P35968, DEL940-989/E990V) (assay: VEGF-R2 coupled spectrophotometric assay, unphosphorylated VEGF-R2Δ50 (FLVK)). Settings: FLVK Ki, Table 1.
Chain of unphosphorylated VEGF-R2Δ50 (FLVK) (P35968 with tags, fused parts or gaps DEL940-989/E990V limits assumed): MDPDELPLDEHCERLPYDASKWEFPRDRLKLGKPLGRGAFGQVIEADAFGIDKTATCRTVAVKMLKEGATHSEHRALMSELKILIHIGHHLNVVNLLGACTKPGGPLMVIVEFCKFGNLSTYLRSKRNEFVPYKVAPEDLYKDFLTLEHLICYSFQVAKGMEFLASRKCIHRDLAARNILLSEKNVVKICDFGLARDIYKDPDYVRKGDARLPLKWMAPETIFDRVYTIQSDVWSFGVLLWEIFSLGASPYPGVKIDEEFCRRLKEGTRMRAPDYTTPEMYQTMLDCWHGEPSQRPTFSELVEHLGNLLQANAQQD

| Compound | Ki |
| --- | --- |
| Nc1cccc(Oc2ccc3c(/C=C/c4ccccc4)n[nH]c3c2)c1 [Example 7, 3-(Styryl-1H-indazol-6-yloxy)-phenylamine] | 18 nM |
| Brc1cccc(Oc2ccc3c(/C=C/c4ccccc4)n[nH]c3c2)c1 [Example 8(d), 6-(3-Bromo-phenoxy)-3-styryl-1H-indazole] | 11 nM |
| C=C(c1ccccc1)c1ccc2c(/C=C/c3ccccc3)n[nH]c2c1 [Example 10, 6-(1-Phenyl-vinyl)-3-styryl-1H-indazole] | 9 nM |

Source: US6534524B1, “Indazole compounds and pharmaceutical compositions for inhibiting protein kinases, and methods for their use” (Agouron Pharmaceuticals, Inc., priority 1999, dated 2003)
